Measured values published in US20060110804A1, “Method of treating an organ for transplantation” (priority 2004, published 2006).
“Also recorded” adds a separate entry of the source. Read-outs that look alike come from different tables or passages of the source.

Legend:
liver grafts [1] = assay: Bile output of cold-preserved liver grafts during ex vivo reperfusion; parameters: species or system rat; conditions: for bile output vs bilirubin-free control: hemin-untreated C16 grafts, 5 μmol/L bilirubin
Protocol: The rats injected with hemin or physiological saline were anesthetized by intraperitoneal injection of pentobarbital sodium (40 mg/kg body weight) and a PE-10 catheter for bile sample collection was inserted into the common bile duct of each rat. A 16-gauge catheter was inserted into the portal vein and 20 ml lactated Ringer's solution kept at 4° C. was passed through the catheter. Subsequently, rat livers were perfused with 20 ml University of Wisconsin solution (UW solution) of 4° C., excised and then preserved in the same solution at 4° C. for 16 hours. […] After cold preservation for 16 hours, each liver graft was reperfused via the portal vein with 95% oxygen-5% carbon dioxide-saturated Krebs-Henseleit buffer (pH 7.4, 37° C.) at 4 ml/min/g liver in the presence of 30 μmol/L sodium taurocholate (see Document 4).
In the hemin-treated liver grafts from Example 1, after 16-hour cold preservation (Hemin/C16), bile samples were collected from the common bile duct every 5 minutes during 40 minute reperfusion. […] The hemin-untreated grafts receiving no cold preservation (Control) and 16-hour cold preservation (C16) were also provided for the same measurement.
The grafts were reperfused with carbogen-saturated Krebs-Henseleit buffer (pH 7.4, 37° C.) supplemented with bilirubin (Sigma Chemical, Co.) and/or CO in combination with 1 μmol/L ZnPP. […] Similarly, hemin-untreated (a) and hemin-treated (b) grafts were provided in the absence of ZnPP for use as controls.
The same experiment as described in Example 4 was repeated, except that the doses of bilirubin and/or CO were varied. After being cold-preserved for 16 hours, the hemin-treated grafts were reperfused for 30 minutes in the presence of ZnPP using reperfusate containing various concentrations of bilirubin and/or CO, and then measured for the levels of bile output, bile salts and phospholipids in bile from the grafts, which were determined in percentages relative to those obtained by reperfusion in the absence of ZnPP.

liver grafts [2] = assay: Bilirubin-IXα concentration in bile of ex vivo reperfused liver grafts (ELISA, antibody 24G7); parameters: species or system rat
Protocol: (§1) The rats injected with hemin or physiological saline were anesthetized by intraperitoneal injection of pentobarbital sodium (40 mg/kg body weight) and a PE-10 catheter for bile sample collection was inserted into the common bile duct of each rat. A 16-gauge catheter was inserted into the portal vein and 20 ml lactated Ringer's solution kept at 4° C. was passed through the catheter. Subsequently, rat livers were perfused with 20 ml University of Wisconsin solution (UW solution) of 4° C., excised and then preserved in the same solution at 4° C. for 16 hours. Since acute oxidative stress would eventually occur, as judged by intracellular hydroperoxide production which occurred concurrently with a reduction of bile formation, a time period of 16 hours was selected for preservation purposes. […]
In the hemin-treated liver grafts from Example 1, after 16-hour cold preservation (Hemin/C16), bile samples were collected from the common bile duct every 5 minutes during 40 minute reperfusion. The bile samples collected at 30 minutes after initiation of reperfusion were also measured for their bilirubin-IXα concentration by enzyme-linked immunosorbent assay detection using the monoclonal antibody 24G7 capable of recognizing both conjugated and unconjugated bilirubin fractions, as described in earlier documents (see Documents 21 and 22). […]

[3] = hemin-treated rats, n=4; cited from earlier work
liver grafts [4] = assay: LDH released into hepatic venous perfusate of ex vivo reperfused liver grafts (liver cell damage); parameters: species or system rat
Protocol: As in the case of Example 5, after being cold-preserved for 16 hours, the hemin-treated grafts were reperfused for 30 minutes in the presence of ZnPP using reperfusate containing varying concentrations of bilirubin, and then measured for the amount of lactate dehydrogenase (LDH) released into the hepatic venous perfusate, which was indicative of liver cell damage in the grafts. For use as controls, hemin-untreated grafts receiving 16-hour cold preservation (C16) and hemin-treated grafts receiving 16-hour cold preservation (Hemin/C16) were provided in the absence of ZnPP. The amount of LDH was measured as described in an earlier document (see Document 24). […] The grafts were divided into the following test groups: (a) receiving 5 minute reperfusion with the bilirubin-containing buffer and subsequent 35 minute reperfusion in the absence of bilirubin, (b) receiving 15 minute reperfusion with the bilirubin-containing buffer and subsequent 25 minute reperfusion in the absence of bilirubin, and (c) receiving 40 minute perfusion with the bilirubin-containing buffer. As a control group (d), the cold-preserved grafts received only bilirubin-free perfusion for 40 minutes. Bile output was then measured over time for each group. Further, FIGS. 6(B) and (C) show the relationship between reperfusion time with the bilirubin-containing buffer and bile output from the grafts and the relationship between reperfusion time and venous LDH concentration, respectively.

liver grafts [5] = assay: CO fluxes in hepatic venous perfusate of ex vivo liver grafts (spectrophotometer); parameters: species or system rat
Protocol: (§2) Male Wistar rats of 190-230 g were allowed to take pellet chow and water without any restriction and then fasted for 6 hours. Subsequently, the rats were intraperitoneally injected with 40 μmol/kg hemin, a strong HO-1 inducer, and then fasted for 18 hours. […] As a hemin-untreated control, rats injected with physiological saline were fasted for 24 hours and then used for the experiment.
as §1, with “hours.” for “hours. Since acute oxidative stress would eventually occur, as judged by intracellular hydroperoxide production which occurred concurrently with a reduction of bile formation, a time period of 16 hours was selected for preservation purposes.”
(§3) The grafts prepared in Example 1 were measured for HO-1 protein expression by Western blot analysis, as described in an earlier document (see Document 20). CO fluxes in hepatic venous flow were also measured with a spectrophotometer according to a previously reported method of the inventors (see Document 16). […]

HO-1 protein = HO-1 protein expression in liver grafts by Western blot analysis; parameters: species or system rat; conditions: hemin-treated (40 μmol/kg i.p.) vs hemin-untreated grafts
Protocol: as §2
as §1, with “hours.” for “hours. Since acute oxidative stress would eventually occur, as judged by intracellular hydroperoxide production which occurred concurrently with a reduction of bile formation, a time period of 16 hours was selected for preservation purposes.”
as §3

liver parenchymal cells = assay: Immunohistological detection of bilirubin in graft tissue with monoclonal antibody 24G7; type: in vivo, rat
Protocol: To examine the effect of bilirubin washing on the accessibility of bilirubin to graft tissues, immunohistological detection of bilirubin was performed using the anti-bilirubin-IXα monoclonal antibody 24G7 according to a previously reported method of the inventors (see Document 27). As observed in the grafts perfused with bilirubin-free lactated Ringer's solution (A), the monoclonal antibody 24G7 triggered an immune reaction primarily in liver non-parenchymal cells including Kupffer cells.

liver grafts [6] = type: in vivo; conditions: grafts washed with 50 μmol/L bilirubin-containing Ringer's solution
Protocol: (§4) To examine in vivo effects of HO-1 preconditioning, a model experiment for liver isograft transplantation was carried out. Male inbred Lewis rats of 220-280 g were allowed to drink water without any restriction, fasted for 24 hours before the experiment, and provided for use as donors and recipients for liver transplantation. In HO-1 preconditioning groups, the rats were hemin-treated at 18 hours before graft preparation in the same manner as used in the ex vivo experiment of Example 1. Liver transplantation was performed according to the technique developed by Kamada (see Document 25) with minor modifications. More specifically, the donors were anesthetized by intraperitoneal injection of pentobarbital sodium (40 mg/kg body weight) and then laparotomized. […]
(§5) In light of Example 7 showing that short-term washing with bilirubin was effective for recovery of post-reperfusion stasis and cell injury in the liver grafts cold-preserved for 16 hours, further attempts were made to examine the in vivo effect of bilirubin washing against post-transplantation injury in the cold-preserved grafts. […] The level of bile output was measured at 30 minutes and 24 hours after initiation of reperfusion. To determine the degree of graft injury at 24 hours after initiation of reperfusion, blood levels of aspartate aminotransferase (AST), alanine aminotransferase (ALT) and LDH were measured in a standard manner. […]

liver grafts [7] = assay: Liver isograft transplantation model: blood levels of AST, ALT and LDH (graft injury); type: in vivo, rat; conditions: washing with irrigation solution containing a higher concentration of bilirubin than 5 to 10 μmol/L
Protocol: as §4, §5

liver grafts [8] = assay: Liver isograft transplantation model: bile output after initiation of reperfusion; type: in vivo, rat; conditions: grafts washed with Ringer's solution containing a higher concentration of bilirubin than 5 to 10 μmol/L
Protocol: as §4, §5

liver grafts [9] = assay: Bile salts and phospholipids in bile of ex vivo reperfused liver grafts (enzyme inhibition assay); parameters: species or system rat; conditions: hemin-treated C16 grafts, 30 minute reperfusion, concentration of 5 μmol/L or less
Protocol: To examine whether bilirubin and/or CO could recover the HO-1-inducing effect inhibited by ZnPP, a strong HO activity inhibitor, the following experiment was carried out. The grafts were reperfused with carbogen-saturated Krebs-Henseleit buffer (pH 7.4, 37° C.) supplemented with bilirubin (Sigma Chemical, Co.) and/or CO in combination with 1 μmol/L ZnPP. […] The total amounts of bile salts and phospholipids in bile samples were measured by enzyme inhibition assay according to a reported method (see Document 23).
An attempt was made to examine dose-dependent effects of bilirubin and/or CO during co-perfusion. […] After being cold-preserved for 16 hours, the hemin-treated grafts were reperfused for 30 minutes in the presence of ZnPP using reperfusate containing various concentrations of bilirubin and/or CO, and then measured for the levels of bile output, bile salts and phospholipids in bile from the grafts, which were determined in percentages relative to those obtained by reperfusion in the absence of ZnPP.

[10] = hemin-treated grafts, 16-hour cold preservation, reperfused with 1 μmol/L of the protoporphyrin

hemin
bile output (liver grafts [1]; hemin-treated grafts after 16-hour cold preservation (Hemin/C16) vs hemin-untreated cold-preserved grafts (C16)): higher plateau; also recorded: increase in bile output
time of bile output recovery after initiation of reperfusion (liver grafts [1]; hemin-treated grafts, 16-hour cold preservation (Hemin/C16)): 10 min
bilirubin fluxes in bile, relative to hemin-untreated group (liver grafts [2]; hemin-treated, cold-preserved 16 hours, reperfused 30 minutes): about 1.5 fold
plasma bilirubin concentration in portal blood [3]: 3.2 ± 0.8 µmol/L
venous LDH release (liver grafts [4]; hemin-treated control, 16-hour cold preservation (Hemin/C16), no ZnPP): almost complete inhibition
venous CO fluxes (liver grafts [5]; hemin-treated (40 μmol/kg i.p.) vs hemin-untreated grafts): significant increases
increase in hepatic venous CO fluxes (liver grafts [5]; hemin-treated grafts, 16-hour cold preservation with or without 30 minute reperfusion, vs hemin-untreated grafts): ~3 fold
HO-1 expression (HO-1 protein): significant increases

C=CC1=C(C)/C(=C/c2[nH]c(Cc3[nH]c(/C=C4\NC(=O)C(C)=C4C=C)c(C)c3CCC(=O)O)c(CCC(=O)O)c2C)NC1=O [bilirubin]
adverse effect on bile secretion or cell survival (liver grafts [1]; hemin-treated C16 grafts, 30 minutes, 5 μmol/L bilirubin in the presence of ZnPP): no adverse effect
bile output vs bilirubin-free control (liver grafts [1]; 15 minute reperfusion then 25 minutes without bilirubin): significant decrease
bile output vs bilirubin-free control (liver grafts [1]; 40 minute perfusion): significant decrease
accessibility of bilirubin to liver parenchymal cells (immune reaction) (liver parenchymal cells; grafts washed with bilirubin-containing Ringer's solution): highly absorbed into liver parenchymal cells
accessibility of bilirubin to liver parenchymal cells (immune reaction) (liver parenchymal cells; grafts washed with bilirubin-containing Ringer's solution supplemented with PPF): accessibility of bilirubin was canceled
LDH release (graft damage) (liver grafts [4]; hemin-untreated C16 grafts, prolonged reperfusion with 5 μmol/L bilirubin-containing buffer): increases in LDH release
rats able to survive for 24 hours after transplantation (liver grafts [6]): None
cell injury (sAST, sALT, sLDH) at 24 hours after transplantation (liver grafts [7]): exacerbation of cell injury
bile output after transplantation (liver grafts [8]): cholestasis occurred

copper protoporphyrin-IX [CuPP]
bile output (liver grafts [1]; [10]): substantially the same bile output

C=CC1=C(C)c2cc3[n-]c(cc4[n-]c(cc5nc(cc1n2)C(C)=C5C=C)c(C)c4CCC(=O)O)c(CCC(=O)O)c3C.[Zn+2] [ZnPP, zinc protoporphyrin-IX]
bile output (liver grafts [1]; [10]): reduced bile output; also recorded: canceled the effect of hemin treatment
bilirubin levels in bile (liver grafts [2]; hemin-treated C16 grafts, co-perfusion with 1 μmol/L ZnPP compared to CuPP): significant decrease
venous LDH release (liver grafts [4]): significantly increased

[C-]#[O+] [CO, carbon monoxide]
recovery of ZnPP-induced reduction of bile output (liver grafts [1]; hemin-treated C16 grafts, 30 minute co-perfusion, 1 μmol/L ZnPP, 5 μmol/L of each test substance): could not achieved
percentage of bile output relative to reperfusion in the absence of ZnPP (liver grafts [1]; hemin-treated C16 grafts, ZnPP, 30 minute reperfusion, concentration of 5 μmol/L or less): no recovery
percentage of bile salts in bile relative to reperfusion in the absence of ZnPP (liver grafts [9]): no recovery
percentage of phospholipids in bile relative to reperfusion in the absence of ZnPP (liver grafts [9]): no recovery
